Numbered stars: 1 amine (or outer) side, 2 acyl side, 3 side chain; on linkers, the order of the positions; unused ones are H or OH. Bridge positions count the residues as written; N and C are the ends. Square brackets hold non-standard residues; d marks the D form. Peptide text beside a SMILES is read from it. * marks the point of attachment. hPhe(3,5-F2-4-CF3) = N[C@@H](CCc1cc(F)c(C(F)(F)F)c(F)c1)C(=O)O; hPhe(3-Cl-4-CF3) = N[C@@H](CCc1ccc(C(F)(F)F)c(Cl)c1)C(=O)O; hPhe(3-F,4-CF3) = N[C@@H](CCc1ccc(C(F)(F)F)c(F)c1)C(=O)O; NEtPhe(4-CF3) = CCN[C@@H](Cc1ccc(C(F)(F)F)cc1)C(=O)O; NMePhe(4-CF3) = CN[C@@H](Cc1ccc(C(F)(F)F)cc1)C(=O)O; hPhe(4-CF3) = N[C@@H](CCc1ccc(C(F)(F)F)cc1)C(=O)O; NMePhe(4-Cl) = CN[C@@H](Cc1ccc(Cl)cc1)C(=O)O; NMePhe(3-F) = CN[C@@H](Cc1cccc(F)c1)C(=O)O; NMedβ3hAla = C[C@H](CC(=O)[*:2])N(C)[*:1]; NMeGly(cPent) = CN[C@H](C(=O)O)C1CCCC1; Phe(3-I) = N[C@@H](Cc1cccc(I)c1)C(=O)O; Pro(4,4-F2) = O=C(O)[C@@H]1CC(F)(F)CN1; X26 = CC(C)=CC[C@H](N[*:1])C(=O)[*:2]; Gly(cPent) = N[C@H](C(=O)O)C1CCCC1; NMeCha = CN[C@@H](CC1CCCCC1)C(=O)O; X82 = O=C(CN(CCC1CNC1)[*:1])[*:2]; Hyp = O=C(O)[C@@H]1C[C@@H](O)CN1; NMeChg = CN[C@H](C(=O)O)C1CCCCC1; X68 = COCCOCCN(CC(=O)[*:2])[*:1]; NMeD = CN[C@@H](CC(=O)O)C(=O)O; NMeL = CN[C@@H](CC(C)C)C(=O)O; NMeNle = CCCC[C@H](NC)C(=O)O; NMePra = C#CC[C@H](NC)C(=O)O; NMeV = CN[C@H](C(=O)O)C(C)C; d(β3hA) = C[C@@H](N)CC(=O)O; Azetidin(1-yl) = C1CN(*)C1; NMeA = CN[C@@H](C)C(=O)O; NMeAib = CNC(C)(C)C(=O)O; Piperidide = C1CCN(*)CC1; dNMeA = CN[C@H](C)C(=O)O; Ac5c = NC1(C(=O)O)CCCC1; Aze = O=C(O)[C@@H]1CCN1; Ac4c = NC1(C(=O)O)CCC1; βAla = NCCC(=O)O; Sar = CNCC(=O)O
These molecules were tested against protein-protein interaction between Kras and SOS1 (biotin-tagged human Kras loaded with GDP, His-tagged human SOS1) (Homo sapiens (Human), UniProt P01116, G12D) (assay: Protein-protein interaction inhibition between Kras and SOS1 (KrasG12D-SOS PPI) using AlphaScreen). Settings: AlphaScreen; biotin-tagged human Kras loaded with GDP, His-tagged human SOS1; read-out: KRAS G12D-SOS PPI IC50.
Type: biochemical
`CC[C@H](C)[C@@H]1NC(=O)[C@H](CC(C)C)N(C)C(=O)C[C@@H](C(=O)N(C)C)N(C)C(=O)[C@H](C2CCCC2)N(C)C(=O)C2(CCCC2)NC(=O)CN(CCC2CNC2)C(=O)[C@H](CCc2ccc(C(F)(F)F)c(F)c2)NC(=O)CN(C)C(=O)[C@H](CC2CCCCC2)N(C)C(=O)[C@@H]2CCN2C(=O)[C@H](C)N(C)C1=O` [Compound 2182, (3S,6S,9S,13S,16S,25S,31S,34S)-23-[2-(azetidin-3-yl)ethyl]-31-(cyclohexylmethyl)-16-cyclopentyl-25-[2-[3-fluoro-4-(trifluoromethyl)phenyl]ethyl]-9-isobutyl-N,N,3,4,10,14,17,29,32-nonamethyl-6-[(1S)-1-methylpropyl]-2,5,8,11,15,18,21,24,27,30,33-undecaoxo-spiro[1,4,7,10,14,17,20,23,26,29,32-undecazabicyclo[32.2.0]hexatriacontane-19,1′-cyclopentane]-13-carboxamide] ([NMeL]I[NMeA][Aze][NMeCha][Sar][hPhe(3-F,4-CF3)][X82][Ac5c][NMeGly(cPent)][NMeD]-NMe2; lactam N-11) showed an IC50 of 3.6 nM.
`CC[C@H](C)[C@@H]1NC(=O)[C@H](CC(C)C)N(C)C(=O)C[C@@H](C)N(C)C(=O)[C@H](C2CCCCC2)N(C)C(=O)C2(CCCC2)NC(=O)[C@@H]2CC(F)(F)CN2C(=O)[C@H](CCc2cc(F)c(C(F)(F)F)c(F)c2)NC(=O)CN(C)C(=O)[C@H](Cc2ccc(C(F)(F)F)cc2)N(C)C(=O)[C@@H]2CCN2C(=O)[C@H](C)N(C)C1=O` [Compound 606] (cyclo([Ac5c][NMeChg][NMedβ3hAla][NMeL]I[NMeA][Aze][NMePhe(4-CF3)][Sar][hPhe(3,5-F2-4-CF3)][Pro(4,4-F2)])) gave an IC50 of 8.3 nM.
`CCO[C@@H]1C[C@H]2C(=O)NC3(CCC3)C(=O)N(C)[C@@H](C3CCCCC3)C(=O)N(C)[C@H](C)CC(=O)N(C)[C@@H](CC(C)C)C(=O)N[C@@H]([C@@H](C)CC)C(=O)N[C@@H](C)C(=O)N3CC[C@H]3C(=O)N(CC)[C@@H](Cc3ccc(C(F)(F)F)cc3)C(=O)N(C)CC(=O)N[C@@H](CCc3ccc(C(F)(F)F)c(Cl)c3)C(=O)N2C1` [Compound 743] (cyclo(A[Aze][NEtPhe(4-CF3)][Sar][hPhe(3-Cl-4-CF3)][Hyp](Et)[Ac4c][NMeChg][NMedβ3hAla][NMeL]I)) showed an IC50 of 40 nM.
`CC[C@H](C)[C@@H]1NC(=O)[C@H](CC(C)C)N(C)C(=O)C[C@@H](C(=O)N2CCC2)N(C)C(=O)[C@H](C(C)C)N(C)C(=O)C2(CCCC2)NC(=O)[C@@H]2CCCN2C(=O)[C@H](CCc2ccc(C(F)(F)F)c(Cl)c2)NC(=O)CN(C)C(=O)[C@H](CC2CCCCC2)N(C)C(=O)[C@@H]2CCN2C(=O)[C@H](C)N(C)C1=O` [Compound 256] ([NMeL]I[NMeA][Aze][NMeCha][Sar][hPhe(3-Cl-4-CF3)]P[Ac5c][NMeV][NMeD]-{Azetidin(1-yl)}; lactam N-11) showed an IC50 of 0.98 nM.
`CC[C@H](C)[C@@H]1NC(=O)[C@H](CC(C)C)N(C)C(=O)C[C@@H](C)NC(=O)[C@H](C(C)C)N(C)C(=O)C2(CCCC2)NC(=O)[C@@H]2CCCN2C(=O)[C@H](CCc2ccc(C(F)(F)F)c(Cl)c2)NC(=O)CN(C)C(=O)[C@H](CC2CCCCC2)N(C)C(=O)[C@@H]2CCN2C(=O)CN(C)C1=O` [Compound 663] (cyclo([Ac5c][NMeV][d(β3hA)][NMeL]I[Sar][Aze][NMeCha][Sar][hPhe(3-Cl-4-CF3)]P)) showed an IC50 of 16 nM.
With `CC(C)C[C@H]1C(=O)N[C@@H](C(C)C)C(=O)N(C)[C@@H](C)C(=O)N2CC[C@H]2C(=O)N(C)[C@@H](CC2CCCCC2)C(=O)N(C)CC(=O)N[C@@H](CCc2ccc(C(F)(F)F)c(Cl)c2)C(=O)N2CCC[C@H]2C(=O)NC2(CCCC2)C(=O)N(C)[C@@H](C(C)C)C(=O)N(C)[C@H](C(=O)N2CCCCC2)CC(=O)N1C` [Compound 1791] ([NMeL]V[NMeA][Aze][NMeCha][Sar][hPhe(3-Cl-4-CF3)]P[Ac5c][NMeV][NMeD]-Piperidide; lactam N-11) the IC50 was 3 nM.
`CC[C@H](C)[C@@H]1NC(=O)[C@H](C(C)C)N(C)C(=O)CCNC(=O)[C@H](CC(C)C)N(C)C(=O)C2(CCCC2)NC(=O)[C@H](CC(C)C)N(C)C(=O)[C@H](CCc2ccc(C(F)(F)F)cc2)NC(=O)CN(C)C(=O)[C@H](Cc2ccc(Cl)cc2)N(C)C(=O)CN(C)C(=O)CN(C)C1=O` [Compound 923] (cyclo([Ac5c][NMeL][βAla][NMeV]I[Sar][Sar][NMePhe(4-Cl)][Sar][hPhe(4-CF3)][NMeL])) was tested, and the IC50 was 230 nM.
`CC[C@H](C)[C@@H]1NC(=O)[C@H](CC(C)C)N(C)C(=O)C[C@@H](C)N(C)C(=O)[C@H](CC(C)C)NC(=O)C(C)(C)N(C)C(=O)[C@H](CC=C(C)C)NC(=O)[C@H](Cc2cccc(I)c2)NC(=O)CN(C)C(=O)[C@H](Cc2ccc(Cl)cc2)N(C)C(=O)CN(C)C(=O)CN(C)C1=O` [Compound 1418] (cyclo(I[Sar][Sar][NMePhe(4-Cl)][Sar][Phe(3-I)][X26][NMeAib]L[NMedβ3hAla][NMeL])) showed an IC50 of 110 nM.
`CC[C@H](C)[C@@H]1NC(=O)[C@H](CC(C)C)N(C)C(=O)C[C@@H](C(=O)N(C)C)N(C)C(=O)[C@H](C2CCCCC2)N(C)C(=O)C2(CCCC2)NC(=O)[C@@H]2CCCN2C(=O)[C@H](CCc2ccc(C(F)(F)F)c(Cl)c2)NC(=O)CN(C)C(=O)[C@H](CC2CCCCC2)N(C)C(=O)[C@@H]2CCN2C(=O)[C@H](C)N(C)C1=O` [Compound 1675] ([NMeL]I[NMeA][Aze][NMeCha][Sar][hPhe(3-Cl-4-CF3)]P[Ac5c][NMeChg][NMeD]-NMe2; lactam N-11) showed an IC50 of 1.2 nM.
`CC[C@H](C)[C@@H]1NC(=O)[C@H](CC(C)C)N(C)C(=O)C[C@@H](C(=O)N(C)C)N(C)C(=O)[C@H](C2CCCC2)N(C)C(=O)C2(CCCC2)NC(=O)[C@@H]2CCCN2C(=O)[C@H](CCc2ccc(C(F)(F)F)c(F)c2)NC(=O)CN(C)C(=O)[C@H](CC2CCCCC2)N(C)C(=O)[C@@H]2CCN2C(=O)[C@H](C)NC1=O` [Compound 1164] ([NMeL]IA[Aze][NMeCha][Sar][hPhe(3-F,4-CF3)]P[Ac5c][NMeGly(cPent)][NMeD]-NMe2; lactam N-11) showed an IC50 of 1.4 nM.
For `CC[C@H](C)[C@@H]1NC(=O)[C@H](CC(C)C)N(C)C(=O)C[C@@H](C(=O)N2CCCCC2)N(C)C(=O)[C@H](C2CCCCC2)N(C)C(=O)C2(CCCC2)NC(=O)CN(CCOCCOC)C(=O)[C@H](CCc2ccc(C(F)(F)F)c(Cl)c2)NC(=O)CN(C)C(=O)[C@H](CC2CCCCC2)N(C)C(=O)CN(C)C(=O)CN(C)C1=O` [Compound 2025] ([NMeL]I[Sar][Sar][NMeCha][Sar][hPhe(3-Cl-4-CF3)][X68][Ac5c][NMeChg][NMeD]-Piperidide; lactam N-11 (inferred); C-terminus assumed), the IC50 was 1.4 nM.
In the case of `CC[C@H](C)[C@@H]1NC(=O)[C@H](CC(C)C)N(C)C(=O)C[C@@H](C)N(C)C(=O)[C@H](C2CCCCC2)N(C)C(=O)C2(CCCC2)NC(=O)[C@@H]2CCCN2C(=O)[C@H](CCc2cc(F)c(C(F)(F)F)c(F)c2)NC(=O)CN(C)C(=O)[C@H](Cc2ccc(C(F)(F)F)cc2)N(C)C(=O)[C@@H]2CCN2C(=O)[C@H](C)N(C)C1=O` [Compound 39] (cyclo([Ac5c][NMeChg][NMedβ3hAla][NMeL]I[NMeA][Aze][NMePhe(4-CF3)][Sar][hPhe(3,5-F2-4-CF3)]P)), the IC50 is reported as 11 nM.
For `CC(C)C[C@H]1C(=O)N[C@@H](C2CCCC2)C(=O)N(C)[C@@H](C)C(=O)N2CC[C@H]2C(=O)N(C)[C@@H](CC2CCCCC2)C(=O)N(C)CC(=O)N[C@@H](CCc2ccc(C(F)(F)F)c(Cl)c2)C(=O)N2CCC[C@H]2C(=O)NC2(CCCC2)C(=O)N(C)[C@@H](C(C)C)C(=O)N[C@H](C)CC(=O)N1C` [Compound 966] (cyclo([Ac5c][NMeV][d(β3hA)][NMeL][Gly(cPent)][NMeA][Aze][NMeCha][Sar][hPhe(3-Cl-4-CF3)]P)), the IC50 was 110 nM.
`CCCC[C@H]1C(=O)N(C)CC(=O)N[C@@H](CCc2ccc(C(F)(F)F)c(Cl)c2)C(=O)N2CCC[C@H]2C(=O)NC2(CCCC2)C(=O)N(C)[C@@H](C(C)C)C(=O)N(C)[C@H](C(=O)N2CCCCC2)CC(=O)N(C)[C@@H](CC(C)C)C(=O)N[C@@H]([C@@H](C)CC)C(=O)N(C)[C@@H](C)C(=O)N2CC[C@H]2C(=O)N1C` [Compound 1712] ([NMeL]I[NMeA][Aze][NMeNle][Sar][hPhe(3-Cl-4-CF3)]P[Ac5c][NMeV][NMeD]-Piperidide; lactam N-11) was tested, and the IC50 was 9.8 nM.
`CC[C@H](C)[C@@H]1NC(=O)[C@H](C)N(C)C(=O)C[C@@H](C)NC(=O)[C@H](C2CCCC2)N(C)C(=O)C2(CCCC2)NC(=O)[C@@H]2CCCN2C(=O)[C@H](CCc2ccc(C(F)(F)F)c(Cl)c2)NC(=O)[C@@H](C)N(C)C(=O)[C@H](Cc2cccc(F)c2)N(C)C(=O)[C@@H]2CCN2C(=O)[C@H](C)N(C)C1=O` [Compound 795] (cyclo([Ac5c][NMeGly(cPent)][d(β3hA)][NMeA]I[NMeA][Aze][NMePhe(3-F)][dNMeA][hPhe(3-Cl-4-CF3)]P)) was tested, and the IC50 was 72 nM.
Molecule `C#CC[C@H]1C(=O)N[C@@H]([C@@H](C)CC)C(=O)N(C)[C@@H](C)C(=O)N2CC[C@H]2C(=O)N(C)[C@@H](CC2CCCCC2)C(=O)N(C)CC(=O)N[C@@H](CCc2ccc(C(F)(F)F)c(Cl)c2)C(=O)N2CCC[C@H]2C(=O)NC2(CCCC2)C(=O)N(C)[C@@H](C(C)C)C(=O)N(C)[C@H](C(=O)N2CCCCC2)CC(=O)N1C` [Compound 559] ([NMePra]I[NMeA][Aze][NMeCha][Sar][hPhe(3-Cl-4-CF3)]P[Ac5c][NMeV][NMeD]-Piperidide; lactam N-11) has an IC50 of 1.7 nM.
With `CCCC[C@H]1C(=O)N2CC[C@H]2C(=O)N(C)[C@@H](CC2CCCCC2)C(=O)N(C)[C@H](C)C(=O)N[C@@H](CCc2ccc(C(F)(F)F)c(Cl)c2)C(=O)N2CCC[C@H]2C(=O)NC2(CCCC2)C(=O)N(C)[C@@H](C(C)C)C(=O)N[C@H](C)CC(=O)N(C)[C@@H](C)C(=O)N[C@@H]([C@@H](C)CC)C(=O)N1C` [Compound 2017] (cyclo([Ac5c][NMeV][d(β3hA)][NMeA]I[NMeNle][Aze][NMeCha][dNMeA][hPhe(3-Cl-4-CF3)]P)) the IC50 was 350 nM.
